According to patent US20220142955A1, “METHODS OF TREATING ORGANIC ACIDEMIAS” (HemoShear Therapeutics, Inc., priority 2019, published 2022):
“And” between values parts separate entries of the source, which are not always exact repeats. Identical values can stand only once. Like-named read-outs stand apart in the source and are kept apart here.

How the values were obtained:
[1] = test system: primary hepatocytes of propionic acidemia patients; assay: Reduction of 13C-propionyl-CoA and accumulation of compound-CoA ester after 13C-isoleucine challenge (Example 1); assay type: cell-based; conditions: Homo sapiens, Hepatocyte, 13C-labeled isoleucine, compound 0 μM to 1,000 μM
Description: Primary hepatocytes are isolated from explanted livers of propionic acidemia patients and are cultured on day 1 using standard protocols (see: Chapman et al. “Recapitulation of metabolic defects in a model of propionic acidemia using patient-derived primary hepatocytes” Mol. Genet. Metab. 2016, 117(3), 355-362). Approximately 2×10^5 hepatocytes are plated into each well of a collagen-coated 48-well tissue culture plate and pre-conditioned in a custom Modified Corning culture media for Hepatocells (Corning) without low levels of branched chain amino acids for 72 hours. On day 4, hepatocytes are treated with increasing doses of compound (0, 1, 3, 10, 30, 100, 300, 1000 μM) for 30 min. After 30 min the cells are challenged with ^13C-isoleucine (3 mM). At the end of the challenge period, cells are lysed in 100 μL of […] acetonitrile (MeCN) and 0.1% trifluoroacetic acid (TFA) containing 100 μM of ethymalonyl-CoA as an internal standard. Cells are removed from the well by scraping into the lysis buffer. The collected cellular samples are then dispensed into a microfuge tube. The plate wells are washed again with lysis buffer to ensure the remaining cells are dislocated from the well. All remaining collected cells are then moved into the centrifuge tube. The cellular samples are flash frozen in liquid nitrogen and stored at −80° C. To begin processing, the frozen cellular lysates are thawed on ice and vortexed. The samples are centrifuged at 20,000 g for 10 min at 4° C. and the total volume of supernatant is transferred to a no-bind 96-well plate on ice. The samples are dried under vacuum for about 2 hours and then resuspended in 150 μL of water in each well. Total volumes of samples are filtered through a prepared Durapore filter plate into a no-bind 96-well plate. The filtered samples are stored at −80° C. for HTMS/MS analysis.

PA primary hepatocytes = assay: HemoShear Technology, PA primary hepatocytes (Examples 10, 11); assay type: cell-based, human
Excerpt: For this experiment, we deployed the HemoShear REVEAL-Tx™ technology, which is based on the cone-and-plate configuration or viscometer combined with a porous polycarbonate membrane that mimics a filtering layer of sinusoidal endothelial cells (see: Dash A, Deering TG, Marukian S, et al. Physiological Hemodynamics and Transport Restore Insulin and Glucagon Responses in a Normal Glucose Milieu in Hepatocytes In Vitro. 73rd Scientific Sessions of the American Diabetes Association, 2013 (Chicago), and U.S. Pat. Nos. 7,811,782 and 9,500,642, and 9,617,521, each of which is incorporated by reference herein in its entirety).
Hepatocytes from propionic academia patients are plated in a collagen gel sandwich on one side of the membrane replicating the polarized orientation found in vivo within the hepatic sinusoids. On the other side, medium is continuously perfused and surface shear rates are applied across a range of physiological values derived from sinusoidal flow rates in vivo while also controlling transport in the system with in- and out-flow tubing to each compartment. Effectively, this creates a flow-based culture system where hepatocytes are shielded from direct effects of flow, as they would be in vivo, but perfusion, nutrient gradients, and interstitial fluid movement are maintained.
Biomarker levels are normalized to cell counts and cell volume to account for differences in the number of cells plated for each donor. […] This is most likely due to the presence of ^12C-succinyl-CoA in the sample, which has the same mass. In experiments described below, M-CoA is labeled with ^13C to determine a more accurate percent reduction. Compound 5 reduced the C3 concentration and the C3/C2 ratio with an EC50 similar to that for the reduction in P-CoA (FIGS. 7C, D).

MMA primary hepatocytes = assay: HemoShear Technology, MMA primary hepatocytes (Examples 10, 11); assay type: cell-based, human; conditions: for EC50 / EC90: Homo sapiens, Hepatocyte
[2] = test system: normal primary hepatocytes; assay: HemoShear Technology, normal primary hepatocytes (Example 11); assay type: cell-based, human; conditions: Normal pHeps
[3] = PA pHeps, HemoShear, average ± SD
[4] = MMA pHeps, HemoShear, average ± SD

CCC(C)(C)C(=O)O [Compound 5, 2,2-dimethybutanoic acid]
EC50 ([1]; read-out: concentration of 12C-Compound-CoA ester EC50): 0.95 µM
EC50 ([1]; read-out: concentration of 13C-propionyl-CoA EC50): 0.43 µM
EC90 (PA primary hepatocytes; Homo sapiens, Hepatocyte, HemoShear, PA and MMA pHeps together, read-out: average EC90 value across all biomarkers): 17.1 ± 13.4 µM
EC50 (PA primary hepatocytes; Homo sapiens, Hepatocyte, PA donor 1, representative data (FIG. 7A), read-out: P-CoA reduction EC50): 1.84 µM
EC50 (PA primary hepatocytes; Homo sapiens, Hepatocyte, PA donor 1, representative data (FIG. 7E), read-out: MCA reduction EC50): 1.96 µM
EC50 (PA primary hepatocytes; Homo sapiens, Hepatocyte, PA pHeps, HemoShear, average ± SD, read-out: 2-Methylcitric acid (2MC) EC50): 1.1 ± 0.5 µM
EC90 (PA primary hepatocytes; Homo sapiens, Hepatocyte, PA pHeps, HemoShear, average ± SD, read-out: 2-Methylcitric acid (2MC) EC90): 7.9 ± 3.6 µM
EC50 (PA primary hepatocytes; Homo sapiens, Hepatocyte, PA pHeps, HemoShear, average ± SD, read-out: 12C-Acetyl-Camitine (C2) EC50): 4.8 ± 0.2 µM
EC90 (PA primary hepatocytes; Homo sapiens, Hepatocyte, PA pHeps, HemoShear, average ± SD, read-out: 12C-Acetyl-Camitine (C2) EC90): 20.7 ± 13.1 µM
EC50 (PA primary hepatocytes; Homo sapiens, Hepatocyte, PA pHeps, HemoShear, average ± SD, read-out: 12C-Propionyl-Carnitine (C3) EC50): 2.6 ± 1.9 µM
EC90 (PA primary hepatocytes; Homo sapiens, Hepatocyte, PA pHeps, HemoShear, average ± SD, read-out: 12C-Propionyl-Carnitine (C3) EC90): 30.8 ± 26.4 µM
EC50 (PA primary hepatocytes; Homo sapiens, Hepatocyte, PA pHeps, HemoShear, average ± SD, read-out: 12C-Propionyl-CoA (P-CoA) EC50): 1.9 ± 1 µM
EC90 (PA primary hepatocytes; Homo sapiens, Hepatocyte, PA pHeps, HemoShear, average ± SD, read-out: 12C-Propionyl-CoA (P-CoA) EC90): 18.4 ± 11.3 µM
EC50 (PA primary hepatocytes; Homo sapiens, Hepatocyte, PA pHeps, HemoShear, read-out: 12C-Acetyl-CoA EC50): 2.3 ± 1.9 µM
EC90 (PA primary hepatocytes; Homo sapiens, Hepatocyte, PA pHeps, HemoShear, read-out: 12C-Acetyl-CoA EC90): 14.4 ± 13.6 µM
EC50 (PA primary hepatocytes; Homo sapiens, Hepatocyte, PA pHeps, HemoShear, read-out: CoASH EC50): 11.6 ± 1.2 µM
EC90 (PA primary hepatocytes; Homo sapiens, Hepatocyte, PA pHeps, HemoShear, read-out: CoASH EC90): 29.8 ± 24.3 µM
EC50 (PA primary hepatocytes; Homo sapiens, Hepatocyte, PA pHeps, HemoShear, read-out: Compound 5-CoA (formation) EC50): 3 ± 1.5 µM
EC90 (PA primary hepatocytes; Homo sapiens, Hepatocyte, PA pHeps, HemoShear, read-out: Compound 5-CoA (formation) EC90): 47.1 ± 39.7 µM
12C-Acetyl-CoA Percent change at 30 μM (PA primary hepatocytes; PA pHeps, HemoShear): 54 ± 80.6%
CoASH Percent change at 30 μM (PA primary hepatocytes; PA pHeps, HemoShear): −31.3 ± 24.2%
average reduction in the C3/C2 ratio (PA primary hepatocytes; PA pHeps, HemoShear, at 30 μM): −2.1±1.2 log 2 fold change
2-Methylcitric acid (2MC) % change at 30 μM (PA primary hepatocytes; [3]): −78.6±12.9%
12C-Acetyl-Camitine (C2) % change at 30 μM (PA primary hepatocytes; [3]): 54 ± 80.6%
12C-Propionyl-Carnitine (C3) % change at 30 μM (PA primary hepatocytes; [3]): −68.9±14.6% and −69.4 ± 16.2%
12C-Propionyl-CoA (P-CoA) % change at 30 μM (PA primary hepatocytes; [3]): −78.8±10.9%
EC90 (PA primary hepatocytes; PA pHeps, HemoShear, average ± SD, read-out: 12C-Propionyl-Carnitine (C3) EC90): 32.1 ± 29.3 µM
EC50 (MMA primary hepatocytes; MMA donor 1, representative data (FIG. 7A), read-out: P-CoA reduction EC50): 3.9 µM
EC50 (MMA primary hepatocytes; MMA donor 1, representative data (FIG. 7B), read-out: M-CoA reduction EC50): 3.25 µM
EC50 (MMA primary hepatocytes; MMA donor 1, representative data (FIG. 7E), read-out: MCA reduction EC50): 1.66 µM
EC50 (MMA primary hepatocytes; MMA pHeps, HemoShear, average ± SD, read-out: 2-Methylcitric acid (2MC) EC50): 0.8 ± 0.5 µM
EC90 (MMA primary hepatocytes; MMA pHeps, HemoShear, average ± SD, read-out: 2-Methylcitric acid (2MC) EC90): 7.5 ± 6.4 µM
EC50 (MMA primary hepatocytes; MMA pHeps, HemoShear, average ± SD, read-out: 12C-Acetyl-Camitine (C2) EC50): 4.3 ± 2.2 µM
EC90 (MMA primary hepatocytes; MMA pHeps, HemoShear, average ± SD, read-out: 12C-Acetyl-Camitine (C2) EC90): 31.3 ± 26.9 µM
EC50 (MMA primary hepatocytes; MMA pHeps, HemoShear, average ± SD, read-out: 12C-Methylmalonyl-CoA (M-CoA) EC50): 2 ± 1.2 µM
EC90 (MMA primary hepatocytes; MMA pHeps, HemoShear, average ± SD, read-out: 12C-Methylmalonyl-CoA (M-CoA) EC90): 12.6 ± 12.9 µM
EC50 (MMA primary hepatocytes; MMA pHeps, HemoShear, average ± SD, read-out: 12C-Propionyl-Carnitine (C3) EC50): 1.4 ± 0.5 µM
EC90 (MMA primary hepatocytes; MMA pHeps, HemoShear, average ± SD, read-out: 12C-Propionyl-Carnitine (C3) EC90): 18.1 ± 16.2 µM
EC50 (MMA primary hepatocytes; MMA pHeps, HemoShear, average ± SD, read-out: 12C-Propionyl-CoA (P-CoA) EC50): 2.1 ± 1.5 µM
EC90 (MMA primary hepatocytes; MMA pHeps, HemoShear, average ± SD, read-out: 12C-Propionyl-CoA (P-CoA) EC90): 36.1 ± 30.1 µM
EC50 (MMA primary hepatocytes; MMA pHeps, HemoShear, read-out: CoASH EC50): 14.1 ± 8.4 µM
EC90 (MMA primary hepatocytes; MMA pHeps, HemoShear, read-out: CoASH EC90): 23.8 ± 20.2 µM
EC50 (MMA primary hepatocytes; MMA pHeps, HemoShear, read-out: Compound 5-CoA (formation) EC50): 3.5 ± 1.7 µM
EC90 (MMA primary hepatocytes; MMA pHeps, HemoShear, read-out: Compound 5-CoA (formation) EC90): 52.4 ± 45.6 µM
12C-Acetyl-CoA Percent change at 30 μM (MMA primary hepatocytes; MMA pHeps, HemoShear): 13.5 ± 24.9%
CoASH Percent change at 30 μM (MMA primary hepatocytes; MMA pHeps, HemoShear): −22.3 ± 22.3%
average reduction in the C3/C2 ratio (MMA primary hepatocytes; MMA pHeps, HemoShear, at 30 μM): −2.2±0.2 log 2 fold change
2-Methylcitric acid (2MC) % change at 30 μM (MMA primary hepatocytes; [4]): −66.7±14.9%
12C-Acetyl-Camitine (C2) % change at 30 μM (MMA primary hepatocytes; [4]): 44.6 ± 26.8%
12C-Methylmalonyl-CoA (M-CoA) % change at 30 μM (MMA primary hepatocytes; [4]): −55±6.6%
12C-Propionyl-Carnitine (C3) % change at 30 μM (MMA primary hepatocytes; [4]): −65.9±10.7%
12C-Propionyl-CoA (P-CoA) % change at 30 μM (MMA primary hepatocytes; [4]): −74.2±11.6%
EC50 ([2]; Homo sapiens, Hepatocyte, read-out: Compound 5-CoA (formation) EC50): 8.3 ± 8 µM
EC90 ([2]; Homo sapiens, Hepatocyte, read-out: Compound 5-CoA (formation) EC90): 26.1 ± 3.1 µM
12C-Acetyl-CoA Percent change at 30 μM [2]: 20 ± 2.9%
CoASH Percent change at 30 μM [2]: −35.2 ± 3%
